According to ChEMBL document CHEMBL1157271, “Maprouneacin, a new daphnane diterpenoid with potent antihyperglycemic activity from Maprounea africana” (1999):

Key:
Format in all cases: functional
Mus musculus [1] = test: Antihyperglycemic activity in NIDDM db/db mouse model assessed as change in plasma glucose level at 0.5 mg/kg, qd after 3 hrs relative to pre-dosed control
Mus musculus [2] = test: Antihyperglycemic activity in NIDDM db/db mouse model assessed as change in plasma glucose level at 0.5 mg/kg, qd after 27 hrs relative to pre-dosed control
Mus musculus [3] = test: Antihyperglycemic activity in NIDDM db/db mouse model assessed as body weight per mouse at 0.5 mg/kg, qd after 24 hrs
Mus musculus [4] = test: Antihyperglycemic activity in NIDDM db/db mouse model assessed as food intake per mouse at 0.5 mg/kg, qd

## CCCCC/C=C/C=C/[C@]12O[C@@H]3[C@@H]4[C@@H]5O[C@]5(CO)[C@@H](O)[C@]5(O)C(=O)C(C)=C[C@H]5[C@@]4(O1)[C@H](COC(=O)CC(C)C)[C@H](OC(=O)CC(C)C)[C@]3([C@]1(C)CO1)O2 [MAPROUNEACIN]
Mus musculus [1]
  Activity: -254 mg/dL
Mus musculus [2]
  Activity: -246 mg/dL
Mus musculus [3]
  Activity: 37.8 g
Mus musculus [4]
  Activity: 0.1 g
